Measurements: US20230219906A1, “MACROCYCLIC-2-AMINO-3-FLUORO-BUT-3-ENAMIDES AS INHIBITORS OF MCL-1” (Janssen Pharmaceutica NV, priority 2020, published 2023)

Legend:
[1] = test system: MOLP-8 human multiple myeloma cell line; assay: Caspase-Glo 3/7 apoptosis induction assay in MOLP-8 cells; format: cell-based; details: Homo sapiens, MOLP-8, 2 h, caspase-3/7 activity, 2 hours at 37° C.; averaged over all runs on all batches; read-out: MOLP8 AC50
From the text: MCL-1 is a regulator of apoptosis and is highly over-expressed in tumor cells that escape cell death. The assay evaluates the cellular potency of small-molecule compounds targeting regulators of the apoptosis pathway, primarily MCL-1, Bfl-1, Bcl-2, and other proteins of the Bcl-2 family. Protein-protein inhibitors disrupting the interaction of anti-apoptotic regulators with BH3-domain proteins initiate apoptosis.
The Caspase-Glo® 3/7 Assay is a luminescent assay that measures caspase-3 and −7 activities in purified enzyme preparations or cultures of adherent or suspension cells. The assay provides a proluminescent caspase-3/7 substrate, which contains the tetrapeptide sequence DEVD. This substrate is cleaved to release aminoluciferin, a substrate of luciferase used in the production of light. Addition of the single Caspase-Glo® 3/7 Reagent in an “add-mix-measure” format results in cell lysis, followed by caspase cleavage of the substrate and generation of a “glow-type” luminescent signal.
This assay uses the MOLP-8 human multiple myeloma cell line, which is sensitive to MCL-1 inhibition.
Cell cultures were maintained between 0.2 and 2.0×10^6 cells/mL. The cells were harvested by collection in 50 mL conical tubes. The cells were then pelleted at 500 g for 5 mins before removing supernatant and resuspension in fresh pre-warmed culture medium. The cells were counted and diluted as needed.
The assay reagent was prepared by transferring the buffer solution to the substrate vial and mixing. The solution may be stored for up to 1 week at 4° C. with negligible loss of signal.
Compounds were delivered in assay-ready plates (Proxiplate) and stored at −20° C. Assays always include 1 reference compound plate containing reference compounds. The plates were spotted with 40 nL of compounds (0.5% DMSO final in cells; serial dilution; […] highest conc. 1/3 dilution, 10 doses, duplicates). The compounds were used at room temperature and 4 μL of pre-warmed media was added to all wells except column 2 and 23. The negative control was prepared by adding 1% DMSO in media. The positive control was prepared by adding the appropriate positive control compound in final concentration of […] in media. The plate was prepared by adding 4 μL negative control to column 23, 4 μL positive control to column 2 and 4 μL cell suspension to all wells in the plate. The plate with cells was then incubated at 37° C. for 2 hours. The assay signal reagent is the Caspase-Glo solution described above, and 8 μL was added to all wells. The plates were then sealed and measured after 30 minutes.
The activity of a test compound was calculated as percent change in apoptosis induction as follows:
% Effect (AC50)=100−(sample-LC)/(HC-LC)*100
% Control=(sample/HC)*100
% Control min=(sample-LC)/(HC-LC)*100

[2] = target: Myeloid Cell Leukemia 1(Mcl-1) (Homo sapiens, UniProt Q07820); assay: Terbium labeled Mcl-1 HTRF binding assay with Cy5-labeled BIM BH3 peptide; details: displacement of Cy5 Bim BH3 peptide; Ki=IC50/(1+[L]/Kd), [L]=8 nM, Kd=10 nM; 60 minutes at room temperature; read-out: Tb-MCL1 Ki
Experimental: Terbium labeled Myeloid Cell Leukemia 1(Mcl-1) homogeneous time-resolved fluorescence (HTRF) binding assay utilizing the BIM BH3 peptide (H2N—(C/Cy5Mal) WIAQELRRIGDEFN-OH) as the binding partner for Mcl-1.
This assay evaluated inhibition of the BH3 domain: Mcl-1 interaction by measuring the displacement of Cy5-labeled BIM BH3 peptide (H2N—(C/Cy5Mal) WIAQELRRIGDEFN-OH) in the HTRF assay format.
The following assay and stock buffers were prepared for use in the assay: (a) Stock buffer: 10 mM Tris-HCl, pH=7.5+150 mM NaCl, filtered, sterilized, and stored at 4° C.; and (b) 1X assay buffer, where the following ingredients were added fresh to stock buffer: 2 mM dithiothreitol (DTT), 0.0025% Tween-20, 0.1 mg/mL bovine serum albumin (BSA). The 1X Tb-Mcl-1+Cy5 Bim peptide solution was prepared by diluting the protein stock solution using the 1X assay buffer (b) to 25 pM Tb-Mcl-1 and 8 nM Cy5 Bim peptide.
Using the Acoustic ECHO, 100 nL of 100x test compound(s) were dispensed into individual wells of a white 384-well Perkin Elmer Proxiplate, for a final compound concentration of 1× and final DMSO concentration of 1%. Inhibitor control and neutral control (NC, 100 nL of 100% DMSO) were stamped into columns 23 and 24 of assay plate, respectively. Into each well of the plate was then dispensed 10 μL of the 1X Tb-Mcl-1+Cy5 Bim peptide solution. The plate was centrifuged with a cover plate at 1000 rpm for 1 minute, then incubated for 60 minutes at room temperature with plates covered.
The TR-FRET signal was read on an BMG PHERAStar FSX MicroPlate Reader at room temperature using the HTRF optic module (HTRF: excitation: 337 nm, light source: laser, emission A: 665 nm, emission B: 620 nm, integration start: 60 μs, integration time: […]).
The BMG PHERAStar FSX MicroPlate Reader was used to measure fluorescence intensity at two emission wavelengths—665 nm and 620 nm—and report relative fluorescence units (RFU) for both emissions, as well as a ratio of the emissions (665 nm/620 nm)*10,000. The RFU values were normalized to percent inhibition as follows:
% inhibition=(((NC−IC)−(compound−IC))/(NC−IC))*100
where IC (inhibitor control, low signal)= mean signal of 1X Tb-MCl-1+Cy5 Bim peptide+inhibitor control or 100% inhibition of Mcl-1; NC (neutral control, high signal)= mean signal 1X Tb-MCl-1+Cy5 Bim peptide with DMSO only or 0% inhibition An 11-point dose response curve was generated to determine IC50 values (using GenData) based on the following equation:
Y=Bottom+(Top−Bottom)/(1+10∧((log IC50−X)*HillSlope))
where Y=% inhibition in the presence of X inhibitor concentration; Top=100% inhibition derived from the IC (mean signal of Mcl-1+inhibitor control); Bottom=0% inhibition derived from the NC (mean signal of Mcl-1+DMSO); Hillslope=Hill coefficient; and IC50=concentration of compound with 50% inhibition in relation to top/neutral control (NC).
In this assay [L]=8 nM and Kd=10 nM

Sequence of Myeloid Cell Leukemia 1(Mcl-1) (Q07820 whole entry): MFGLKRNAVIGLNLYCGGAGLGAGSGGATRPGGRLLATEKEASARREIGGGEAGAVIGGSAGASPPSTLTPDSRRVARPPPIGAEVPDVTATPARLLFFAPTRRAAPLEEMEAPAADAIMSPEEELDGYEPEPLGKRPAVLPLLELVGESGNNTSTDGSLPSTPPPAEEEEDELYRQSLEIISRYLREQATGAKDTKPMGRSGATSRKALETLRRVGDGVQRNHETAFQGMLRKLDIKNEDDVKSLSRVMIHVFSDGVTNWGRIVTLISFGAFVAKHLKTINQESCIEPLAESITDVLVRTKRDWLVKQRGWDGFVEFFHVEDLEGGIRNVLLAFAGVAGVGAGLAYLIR

Compound	AC50 [1]	Ki [2]
C[C@@H]1[C@@H](C)C/C=C(\F)[C@H](C(=O)N2CCOC3(CCC3)C2)N2CCC[C@H]2CN2C[C@@]3(CCCc4cc(Cl)ccc43)COc3ccc(cc32)C(=O)NS1(=O)=O [Compound 26]	153 nM	0.115 nM
C[C@@H]1[C@@H](C)C/C=C(\F)[C@H](C(=O)N(C)CCO)N2CCC[C@H]2CN2C[C@@]3(CCCc4cc(Cl)ccc43)COc3ccc(cc32)C(=O)NS1(=O)=O [Compound 27]	396 nM	0.054 nM
C[C@@H]1[C@@H](C)C/C=C(\F)[C@H](C(=O)N(C)c2ccccc2)N2CCC[C@H]2CN2C[C@@]3(CCCc4cc(Cl)ccc43)COc3ccc(cc32)C(=O)NS1(=O)=O [Compound 28]	302 nM	0.465 nM
C[C@@H]1[C@@H](C)C/C=C(\F)[C@H](C(=O)N2CCCC3(C2)CC3(F)F)N2CCC[C@H]2CN2C[C@@]3(CCCc4cc(Cl)ccc43)COc3ccc(cc32)C(=O)NS1(=O)=O (stereo partly shown) [Compound 29]	408 nM	0.494 nM
C[C@@H]1[C@@H](C)C/C=C(\F)[C@H](C(=O)N(C)CC(F)(F)F)N2CCC[C@H]2CN2C[C@@]3(CCCc4cc(Cl)ccc43)COc3ccc(cc32)C(=O)NS1(=O)=O [Compound 30]	351 nM	0.379 nM
CC(C)N(C)C(=O)[C@H]1/C(F)=C/C[C@H](C)[C@@H](C)S(=O)(=O)NC(=O)c2ccc3c(c2)N(C[C@@H]2CCCN21)C[C@@]1(CCCc2cc(Cl)ccc21)CO3 [Compound 31]	238 nM	0.105 nM
C[C@@H]1[C@@H](C)C/C=C(\F)[C@H](C(=O)N2CCC3(CCCCC3)C2)N2CCC[C@H]2CN2C[C@@]3(CCCc4cc(Cl)ccc43)COc3ccc(cc32)C(=O)NS1(=O)=O [Compound 32]	478 nM	0.603 nM
C[C@@H]1[C@@H](C)C/C=C(\F)[C@H](C(=O)N(C)Cc2ccnn2C)N2CCC[C@H]2CN2C[C@@]3(CCCc4cc(Cl)ccc43)COc3ccc(cc32)C(=O)NS1(=O)=O [Compound 34]	76.9 nM	0.077 nM
C[C@@H]1[C@@H](C)C/C=C(\F)[C@H](C(=O)N(C)CCOC2CCOCC2)N2CCC[C@H]2CN2C[C@@]3(CCCc4cc(Cl)ccc43)COc3ccc(cc32)C(=O)NS1(=O)=O [Compound 35]	90.1 nM	0.066 nM
C[C@@H]1[C@@H](C)C/C=C(\F)[C@H](C(=O)N2CC(C(F)(F)F)C2)N2CCC[C@H]2CN2C[C@@]3(CCCc4cc(Cl)ccc43)COc3ccc(cc32)C(=O)NS1(=O)=O [Compound 36]	399 nM	0.325 nM
COCCCN(CCCOC)C(=O)[C@H]1/C(F)=C/C[C@H](C)[C@@H](C)S(=O)(=O)NC(=O)c2ccc3c(c2)N(C[C@@H]2CCCN21)C[C@@]1(CCCc2cc(Cl)ccc21)CO3 [Compound 37]	49.5 nM	0.061 nM
COCCN1CCN(C(=O)[C@H]2/C(F)=C/C[C@H](C)[C@@H](C)S(=O)(=O)NC(=O)c3ccc4c(c3)N(C[C@@H]3CCCN32)C[C@@]2(CCCc3cc(Cl)ccc32)CO4)CC1 [Compound 38]	187 nM	0.051 nM
COCCN(CCOC)C(=O)[C@H]1/C(F)=C/C[C@H](C)[C@@H](C)S(=O)(=O)NC(=O)c2ccc3c(c2)N(C[C@@H]2CCCN21)C[C@@]1(CCCc2cc(Cl)ccc21)CO3 [Compound 39]	19.7 nM	0.081 nM
C[C@@H]1[C@@H](C)C/C=C(\F)[C@H](C(=O)N(C)Cc2ccn(C)n2)N2CCC[C@H]2CN2C[C@@]3(CCCc4cc(Cl)ccc43)COc3ccc(cc32)C(=O)NS1(=O)=O [Compound 40]	138 nM	0.623 nM
C[C@@H]1[C@@H](C)C/C=C(\F)[C@H](C(=O)N(C)CCOc2cncnc2)N2CCC[C@H]2CN2C[C@@]3(CCCc4cc(Cl)ccc43)COc3ccc(cc32)C(=O)NS1(=O)=O [Compound 41]	99.1 nM	0.034 nM
COC1(C(F)(F)F)CN(C(=O)[C@H]2/C(F)=C/C[C@H](C)[C@@H](C)S(=O)(=O)NC(=O)c3ccc4c(c3)N(C[C@@H]3CCCN32)C[C@@]2(CCCc3cc(Cl)ccc32)CO4)C1 [Compound 42]	463 nM	0.374 nM
C[C@@H]1[C@@H](C)C/C=C(\F)[C@H](C(=O)N2CCC(F)(F)CC2)N2CCC[C@H]2CN2C[C@@]3(CCCc4cc(Cl)ccc43)COc3ccc(cc32)C(=O)NS1(=O)=O [Compound 43]	399 nM	0.438 nM
CC1CN(CCN(C)C(=O)[C@H]2/C(F)=C/C[C@H](C)[C@@H](C)S(=O)(=O)NC(=O)c3ccc4c(c3)N(C[C@@H]3CCCN32)C[C@@]2(CCCc3cc(Cl)ccc32)CO4)CC(C)O1 (stereo partly shown) [Compound 44]	87.3 nM	0.104 nM
C[C@@H]1[C@@H](C)C/C=C(\F)[C@H](C(=O)N2CCC(CC#N)CC2)N2CCC[C@H]2CN2C[C@@]3(CCCc4cc(Cl)ccc43)COc3ccc(cc32)C(=O)NS1(=O)=O [Compound 46]	329 nM	0.091 nM
C[C@@H]1[C@@H](C)C/C=C(\F)[C@H](C(=O)N2CC[C@@H](C#N)C2)N2CCC[C@H]2CN2C[C@@]3(CCCc4cc(Cl)ccc43)COc3ccc(cc32)C(=O)NS1(=O)=O [Compound 47]	241 nM	0.065 nM
C[C@@H]1[C@@H](C)C/C=C(\F)[C@H](C(=O)N(C)CCOc2cncc(F)c2)N2CCC[C@H]2CN2C[C@@]3(CCCc4cc(Cl)ccc43)COc3ccc(cc32)C(=O)NS1(=O)=O [Compound 48]	112 nM	0.155 nM
CO[C@@H]1CCN(C(=O)[C@H]2/C(F)=C/C[C@H](C)[C@@H](C)S(=O)(=O)NC(=O)c3ccc4c(c3)N(C[C@@H]3CCCN32)C[C@@]2(CCCc3cc(Cl)ccc32)CO4)C1 [Compound 52]	90.5 nM	0.036 nM
C[C@@H]1[C@@H](C)C/C=C(\F)[C@H](C(=O)N2C[C@@H]3OCCO[C@@H]3C2)N2CCC[C@H]2CN2C[C@@]3(CCCc4cc(Cl)ccc43)COc3ccc(cc32)C(=O)NS1(=O)=O [Compound 53]	169 nM	0.069 nM
